In article PMC6920897, “Interactions of 7,8-Dihydroxyflavone with Serum Albumin as well as with CYP2C9, CYP2C19, CYP3A4, and Xanthine Oxidase Biotransformation Enzymes” (Biomolecules, 2019):
Values joined by “and” are separate entries in the source; they are usually repeats but may differ in a detail not shown here. Identical values can stand only once. Like-named read-outs stand apart in the source and are kept apart here.

Assays:
[1] = system: T1, warfarin-HSA complex (Site I); test: Fluorescence-based displacement of warfarin from HSA; format: binding, human; conditions: warfarin 1.0 μM, HSA 3.5 μM, DHF 0-10 μM, PBS pH 7.4, λex 317 nm
T1 construct: purchased Sigma-Aldrich
Method: Ultraviolet (UV)-Vis spectra of DHF were recorded employing a Halo DB-20 spectrophotometer (Dynamica; Dietikon, Switzerland), after which the inner filter effect of DHF was corrected in each experiment based on the following equation [26, 28]:(2) Icorr=Iobs×e^(Aex+ Aem)/2, where Icorr and Iobs indicate the corrected and the measured fluorescence emission intensity, respectively, while Aex and Aem denote the absorption of DHF at the excitation and emission wavelengths used, respectively.

[2] = target: T2, xanthine oxidase (XO; from bovine milk) (Bos taurus, UniProt P80457); test: Xanthine oxidase in vitro enzyme assay (6-mercaptopurine to 6-thiouric acid); format: biochemical; conditions: substrate 6-mercaptopurine 5.0 μM
T2 construct: xanthine oxidase (XO; from bovine milk); purchased Sigma-Aldrich; host or cells: bovine milk
Method: The inhibitory action of DHF on XO was investigated as described earlier [31]. In the enzyme-catalyzed reaction, 6-mercaptopurine is oxidized to 6-thiouric acid. […] The incubates (with 500 μL final volume) contained XO enzyme (0.01 unit/mL), 6-mercaptopurine (5 μM), and increasing concentrations of DHF (0, 5, 10, 15, and 20 μM) in sodium phosphate buffer (50 mM, pH 7.5). Samples were incubated in thermomixer (40 min, 700 rpm, 37 °C). The reaction was started by the addition of the enzyme and stopped by the addition of 30 μL of perchloric acid (6 M). After the samples were vortexed and centrifuged (5 min, 1,4000× g, room temperature), a 300-μL aliquot of the supernatant was transferred into another Eppendorf tube; then, 36 μL of potassium hydroxide (1 M) was added to this fraction. Samples were cooled to 3 °C, then, centrifuged (5 min, 14,000× g, 3°C). 6-mercaptopurine and 6-thiouric acid were quantified in the supernatants by HPLC (see Section 2.5).
The samples were driven through a Phenomenex SecurityGuard (C18, 4.0 × 3.0 mm) guard column linked to a Phenomenex Gemini-NX C18 (150 × 4.6 mm, 3 μm) analytical column. The eluent contained methanol, acetonitrile, and 0.02 M orthophosphoric acid (4:5:91 v/v%). The isocratic elution was performed at 0.8 mL/min flow rate at room temperature. 6-mercaptopurine and 6-thiouric acid were detected at 334 nm.

[3] = system: T3, HSA Site II (naproxen); test: Ultrafiltration: displacement of Site II marker naproxen from HSA; format: binding, human; conditions: naproxen 1.0 μM, HSA 1.5 μM, PBS pH 7.4
T3 construct: purchased Sigma-Aldrich
Method: Pall Microsep Advance centrifugal devices with a 10-kDa molecular weight cut-off (MWCO) value (VWR; Budapest, Hungary) were applied. […] Before ultrafiltration, the filter units were washed once with 3.0 mL of distilled water and twice with 3.0 mL of PBS; then, samples (with a 2.5 mL volume) were driven through the filters by centrifugation (10 min, 7500× g, fixed-angle rotor, 25 °C). The concentrations of site markers in the filtrates were quantified with HPLC (see Section 2.5). Naproxen was analyzed in the filtrates as described earlier. […] The mobile phase contained acetonitrile and sodium acetate buffer (6.9 mM, pH 4.0) (50:50 v/v%). […] Naproxen was detected at 230 nm.

[4] = system: T4, HSA Site I (warfarin); test: Ultrafiltration: displacement of Site I marker warfarin from HSA; format: binding, human; conditions: warfarin 1.0 μM, HSA 5.0 μM, PBS pH 7.4
T4 construct: purchased Sigma-Aldrich
Method: Pall Microsep Advance centrifugal devices with a 10-kDa molecular weight cut-off (MWCO) value (VWR; Budapest, Hungary) were applied. […] Before ultrafiltration, the filter units were washed once with 3.0 mL of distilled water and twice with 3.0 mL of PBS; then, samples (with a 2.5 mL volume) were driven through the filters by centrifugation (10 min, 7500× g, fixed-angle rotor, 25 °C). The concentrations of site markers in the filtrates were quantified with HPLC (see Section 2.5). […] The samples were driven through a Nova-Pak C18 guard column (3.9 × 20 mm, 4 μm; Waters,) and a Nova-Pak C18 analytical column (3.9 × 150 mm, 4 μm; Waters). The mobile phase contained sodium phosphate buffer (25 mM, pH 7.0), methanol, and acetonitrile (70:25:5 v/v%).

[5] = target: T5, CYP3A4 (Homo sapiens, UniProt P08684); test: CYP3A4 in vitro enzyme assay (testosterone to 6β-hydroxytestosterone)
Method: The inhibitory effect of DHF on CYP3A4 was investigated as described previously. In the enzyme-catalyzed reaction, testosterone is oxidized to 6β-hydroxytestosterone. […] The incubates (with 200 μL final volume) contained CypExpress 3A4 reagent (15 mg/mL; containing also the NADPH generating system), testosterone (5 μM), NADP^+ (200 μM), G6P (500 μM), and increasing concentrations of DHF (0, 5, 10, 15, and 20 μM) in potassium phosphate buffer (50 mM, pH 7.5). Samples were incubated in thermomixer (180 min, 600 rpm, 30 °C). The reaction was started by the addition of the enzyme and stopped by the addition of 100 μL of ice-cold methanol. After centrifugation (10 min, 14,000× g, 25 °C), testosterone and 6β-hydroxytestosterone were analyzed in the supernatants by HPLC (see Section 2.5).
Testosterone and 6β-hydroxytestosterone (CYP3A4 assay) were quantified as reported previously. The samples were driven through a Phenomenex Security Guard (C18, 4.0 × 3.0 mm) guard column linked to a Kinetex EVO C18 (150 × 4.6 mm, 5 μm) analytical column (Phenomenex). The mobile phase contained methanol, water, and glacial acetic acid (59:40:1 v/v%). The isocratic elution was performed at 1.2 mL/min flow rate at room temperature. Testosterone and 6β-hydroxytestosterone were detected at 240 nm.

[6] = parameters: method as in PMID 29295929; conditions: mice, cited from earlier work
[7] = target: T6, CYP2C9 (Homo sapiens, UniProt P11712); test: CYP2C9 in vitro enzyme assay (diclofenac to 4'-hydroxydiclofenac)
Method: The inhibitory action of DHF on CYP2C9 was investigated as described earlier. In the enzyme-catalyzed reaction, diclofenac is oxidized to 4′-hydroxydiclofenac. […] The incubates (with 200 μL final volume) contained CypExpress 2C9 reagent (8 mg/mL) including also the NADPH (nicotinamide adenine dinucleotide phosphate, reduced) generating system, diclofenac (15 μM), and increasing concentrations of DHF (0, 15, 30, 45, and 60 μM) in potassium phosphate buffer (50 mM, pH 7.5). The incubation was carried out in a thermomixer (80 min, 700 rpm, 30 °C). The reaction was started by the addition of the enzyme and stopped by the addition of 100 μL of ice-cold methanol; then, the samples were centrifuged (10 min, 14,000× g, 25 °C). Diclofenac and 4′-hydroxydiclofenac were analyzed in the supernatants by HPLC (see Section 2.5).
Diclofenac and 4′-hydroxydiclofenac (CYP2C9 assay) were quantified as reported previously. The samples were driven through a Phenomenex Security Guard (C8, 4.0 × 3.0 mm) guard column (Torrance, CA, USA) linked to an Eclipse C8 (150 × 4.6 mm, 5 μm; Agilent, Santa Clara, CA, USA) analytical column. The separation was carried out at 1.0 mL/min flow rate at room temperature. During the isocratic elution, the mobile phase contained acetonitrile and 6 mM orthophosphoric acid (52:48 v/v%). Diclofenac and 4′-hydroxydiclofenac were detected at 275 nm.

[8] = system: T7, human serum albumin (HSA); test: Fluorescence quenching of HSA by DHF (Stern-Volmer, Hyperquad2006); format: binding; conditions: HSA 2 μM, PBS pH 7.4, 25 °C
T7 construct: purchased Sigma-Aldrich
Method: Fluorescence spectroscopic measurements were carried out using a Hitachi F-4500 fluorescence spectrophotometer (Tokyo, Japan). The binding constant of the DHF–HSA complex was determined by fluorescence quenching, during which increasing amounts of DHF (final concentrations: 0, 0.5, 1.0, 2.0, 3.0, 4.0, 5.0, and 6.0 μM) were added to HSA (2 μM) in phosphate buffered saline (PBS; pH 7.4; containing 8.00 g/L NaCl, 0.20 g/L KCl, 1.81 g/L Na2HPO4 × 2H2O, and 0.24 g/L KH2PO4); then, emission spectra were recorded using 295-nm excitation wavelength (at 25 °C, in the presence of air). DHF-HSA interaction was evaluated using the graphical application of the Stern-Volmer equation [25, 26]:(1) I0/I=[…], where I0 and I are the fluorescence emission intensity of HSA at 340 nm in the absence and presence of DHF, respectively. KSV denotes the Stern–Volmer quenching constant (unit: L/mol), and [Q] is the concentration of DHF (unit: mol/L). Furthermore, the binding constant (K; unit: L/mol) of the DHF–HSA complex was determined by nonlinear fitting applying the Hyperquad2006 software as described elsewhere. […]

[9] = target: CYP2C19 (Homo sapiens, UniProt P33261); test: CYP2C19 in vitro enzyme assay (S-mephenytoin to 4-hydroxymephenytoin); format: biochemical
Method: To study the inhibitory effect of DHF on CYP2C19, S-mephenytoin was used as the substrate. During the enzyme-catalyzed reaction, 4-hydroxymephenytoin is formed. […] The incubation was performed in a thermomixer (120 min, 600 rpm, 30 °C). […] After centrifugation (10 min, 14,000× g, 25 °C), S-mephenytoin and 4-hydroxymephenytoin were quantified in the supernatants by HPLC (see Section 2.5).
The mobile phase contained acetonitrile, methanol, and sodium phosphate buffer (10 mM, pH 4.55) (20:15:65 v/v%). […] S-mephenytoin and 4-hydroxymephenytoin were detected at 230 nm.

[10] = cited from earlier work
[11] = system: HSA; conditions: cited from earlier work
[12] = target: T6, CYP2C9; conditions: same model as this study; cited from earlier work
[13] = target: T5, CYP3A4; parameters: method as in PMID 30142539; conditions: same model as this study; cited from earlier work

T5 sequence (P08684 whole entry): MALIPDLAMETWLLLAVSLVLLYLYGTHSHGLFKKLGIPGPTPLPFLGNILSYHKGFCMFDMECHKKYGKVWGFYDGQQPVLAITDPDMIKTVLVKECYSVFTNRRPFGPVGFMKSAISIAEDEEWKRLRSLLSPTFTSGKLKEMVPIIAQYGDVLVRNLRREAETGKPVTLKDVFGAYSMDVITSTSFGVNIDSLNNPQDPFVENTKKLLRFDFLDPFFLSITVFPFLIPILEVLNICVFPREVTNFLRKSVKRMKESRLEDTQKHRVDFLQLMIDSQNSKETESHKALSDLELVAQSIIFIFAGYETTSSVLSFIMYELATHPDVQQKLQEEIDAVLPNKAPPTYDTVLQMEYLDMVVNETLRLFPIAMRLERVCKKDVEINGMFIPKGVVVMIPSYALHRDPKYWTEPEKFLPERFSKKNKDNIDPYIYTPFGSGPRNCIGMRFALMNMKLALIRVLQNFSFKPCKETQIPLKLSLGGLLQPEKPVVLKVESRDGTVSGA
T6 sequence (P11712 whole entry): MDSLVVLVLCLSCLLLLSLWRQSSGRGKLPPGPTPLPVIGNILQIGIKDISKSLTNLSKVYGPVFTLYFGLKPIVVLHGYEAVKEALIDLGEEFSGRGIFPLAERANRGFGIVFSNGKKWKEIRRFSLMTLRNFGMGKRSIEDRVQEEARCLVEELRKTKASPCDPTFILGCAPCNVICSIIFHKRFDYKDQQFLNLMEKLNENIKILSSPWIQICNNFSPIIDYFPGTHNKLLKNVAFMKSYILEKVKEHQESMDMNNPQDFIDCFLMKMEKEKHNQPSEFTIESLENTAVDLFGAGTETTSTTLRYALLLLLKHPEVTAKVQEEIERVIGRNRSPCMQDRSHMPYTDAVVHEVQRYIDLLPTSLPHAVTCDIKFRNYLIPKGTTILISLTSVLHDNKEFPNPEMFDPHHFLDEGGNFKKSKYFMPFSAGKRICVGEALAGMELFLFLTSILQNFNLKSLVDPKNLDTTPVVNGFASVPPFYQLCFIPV
CYP2C19, sequence (P33261 whole entry): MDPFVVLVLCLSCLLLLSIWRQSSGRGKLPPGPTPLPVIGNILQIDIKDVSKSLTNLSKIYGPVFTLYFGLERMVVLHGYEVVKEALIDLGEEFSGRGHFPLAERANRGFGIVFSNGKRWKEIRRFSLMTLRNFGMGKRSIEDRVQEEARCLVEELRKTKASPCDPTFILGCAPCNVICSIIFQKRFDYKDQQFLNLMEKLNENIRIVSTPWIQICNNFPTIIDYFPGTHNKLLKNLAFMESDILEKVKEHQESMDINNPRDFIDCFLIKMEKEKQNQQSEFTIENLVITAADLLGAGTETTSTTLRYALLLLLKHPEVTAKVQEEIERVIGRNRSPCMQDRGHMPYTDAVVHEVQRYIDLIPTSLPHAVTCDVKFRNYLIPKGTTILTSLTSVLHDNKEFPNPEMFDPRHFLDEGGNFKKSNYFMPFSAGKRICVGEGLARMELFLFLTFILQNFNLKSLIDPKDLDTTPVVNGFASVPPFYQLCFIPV
T2 sequence (P80457 whole entry): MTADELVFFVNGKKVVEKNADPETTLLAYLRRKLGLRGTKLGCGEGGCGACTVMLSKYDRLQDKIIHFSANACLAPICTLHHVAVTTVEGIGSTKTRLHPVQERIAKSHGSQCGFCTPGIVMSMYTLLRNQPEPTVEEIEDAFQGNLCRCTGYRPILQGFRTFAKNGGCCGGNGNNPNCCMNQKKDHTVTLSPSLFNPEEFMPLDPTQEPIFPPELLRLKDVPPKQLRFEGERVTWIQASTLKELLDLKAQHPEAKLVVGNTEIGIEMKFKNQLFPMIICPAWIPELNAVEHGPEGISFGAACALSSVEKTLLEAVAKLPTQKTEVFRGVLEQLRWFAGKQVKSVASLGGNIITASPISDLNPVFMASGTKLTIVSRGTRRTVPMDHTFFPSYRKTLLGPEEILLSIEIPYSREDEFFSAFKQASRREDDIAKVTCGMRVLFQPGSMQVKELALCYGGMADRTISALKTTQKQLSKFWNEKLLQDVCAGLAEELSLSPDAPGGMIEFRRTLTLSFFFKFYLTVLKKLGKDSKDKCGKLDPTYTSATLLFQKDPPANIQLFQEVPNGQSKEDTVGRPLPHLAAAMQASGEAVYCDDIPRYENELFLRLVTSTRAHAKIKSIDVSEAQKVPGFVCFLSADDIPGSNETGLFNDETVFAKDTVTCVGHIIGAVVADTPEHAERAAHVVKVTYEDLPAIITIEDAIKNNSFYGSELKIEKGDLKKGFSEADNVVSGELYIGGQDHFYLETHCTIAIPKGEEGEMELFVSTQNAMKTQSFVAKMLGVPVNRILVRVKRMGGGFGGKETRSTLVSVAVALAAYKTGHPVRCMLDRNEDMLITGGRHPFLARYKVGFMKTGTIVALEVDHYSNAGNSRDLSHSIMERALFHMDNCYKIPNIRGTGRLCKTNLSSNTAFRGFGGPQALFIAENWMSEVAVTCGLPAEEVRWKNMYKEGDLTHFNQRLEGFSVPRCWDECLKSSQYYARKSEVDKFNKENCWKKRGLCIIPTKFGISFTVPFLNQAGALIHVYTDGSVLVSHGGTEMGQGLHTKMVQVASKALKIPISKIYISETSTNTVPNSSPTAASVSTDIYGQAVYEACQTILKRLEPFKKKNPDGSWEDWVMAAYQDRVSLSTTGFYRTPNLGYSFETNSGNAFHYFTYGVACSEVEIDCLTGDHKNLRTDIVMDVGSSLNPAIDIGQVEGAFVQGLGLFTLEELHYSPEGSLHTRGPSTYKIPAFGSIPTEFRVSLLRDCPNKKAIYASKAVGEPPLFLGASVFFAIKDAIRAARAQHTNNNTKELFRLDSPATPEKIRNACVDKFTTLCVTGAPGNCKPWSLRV

With `O=c1cc(-c2ccccc2)oc2c(O)c(O)ccc12` [DHF, 7,8-dihydroxyflavone] the “effect on fluorescence emission signal of warfarin at 379 nm” value [1] was “strongly decreased”, the IC50 [2] was 11 µM and the “further fraction of total naproxen in the filtrate” value ([3]; 10 μM DHF) was 14%. For the same molecule, the “further fraction of total naproxen in the filtrate” value ([3]; 20 μM DHF) was 22%, the “fraction of total warfarin became unbound” value ([4]; 10 μM DHF) was 12% and the “fraction of total warfarin became unbound” value ([4]; 20 μM DHF) was 21%. For the same molecule, the IC50 [5] was 14.5 µM, the “IC50(rel) (IC50 divided by substrate concentration)” value ([5]; human, 180 min, pH 7.5) was 2.9 and the plasma concentrations ([6]; per os 15-50 mg/kg DHF) was 33 to 192 nM. For the same molecule, the oral bioavailability [6] was “approximately 4.5%”, the IC50 [7] was 34.5 µM and the “IC50(rel) (IC50 divided by substrate concentration)” value ([7]; human, 80 min, pH 7.5) was 2.3. For the same molecule, the “α (IC50 of DHF divided by IC50 of positive control)” value ([7]; human, 80 min, pH 7.5) was 1.0, the “Stern-Volmer quenching constant KSV” value ([8]; λex 295 nm, λem 340 nm) was 344000 ± 3000 L/mol and the “binding constant K of DHF-HSA complex” value ([8]; nonlinear fitting with Hyperquad2006) was 490000 L/mol and 487000 ± 7000 L/mol. For the same molecule, the IC50 [9] was 19 µM and the “IC50(rel) (IC50 divided by substrate concentration)” value ([9]; human, 120 min, pH 7.5) was 3.8.
For `Clc1ccccc1CN1CCc2sccc2C1` [TIC, ticlopidine], the peak plasma concentrations ([10]; chronic treatment, oral 250 mg twice daily, men) is given as 3.4 to 4.1 µM, the “average peak plasma concentrations” value ([10]; oral 3 × 100 mg daily, healthy subjects) is given as “approximately 3.5 μM” and the peak plasma concentration ([10]; oral single 250 mg dose) is given as 1.3 to 2.6 µM.
In the case of `CC(=O)CC(c1ccccc1)c1c(O)c2ccccc2oc1=O` (stereo not shown) [WAR, warfarin, reference compound], the “binding constant K to HSA” value ([11]; warfarin-HSA) is listed as 340000 L/mol and the “IC50(rel) (IC50 divided by substrate concentration)” value ([7]; human, 80 min, pH 7.5) is listed as 2.3.
In the case of `COc1ccc(-c2oc3cc(OC)c(OC)c(O)c3c(=O)c2OC)cc1O` [casticin], the “fold weaker inhibitor of CYP2C9 compared to DHF” value [12] is listed as 1.3 fold.
In the case of `O=c1cc(-c2ccccc2)oc2cc(O)cc(O)c12` [chrysin, 5,7-dihydroxyflavone], the “binding constant K to HSA” value ([11]; chrysin-HSA) is given as 340000 L/mol.
For `Oc1ccc(/C=C/c2cc(O)cc(O)c2)cc1` [resveratrol], the “inhibitory effect on CYP3A4 compared to DHF” value [13] is given as “two-fold stronger inhibitor”.
